Data reported in US9458179B2, “Quinuclidine, 1-azabicyclo[2.2.1]heptane, 1-azabicyclo [3.2.1]octane, and 1-azabicyclo[3.2.2]nonane compounds as alpha-7 nicotinic acetylcholine receptor ligands” (BRISTOL-MYERS SQUIBB COMPANY, priority 2012, dated 2016).
Where two headings read alike, the source gives them in different places.

Target: T1, α-7 nicotinic ACh receptor ion channel (Rattus norvegicus, UniProt Q05941)
T1 construct: expressed in transfected cells
Experiment: Ca2+-sensitive fluorescence-based FLIPR assay of α7 nicotinic receptor channel function (agonist activity)
Type: cell-based
Settings: HEK 293 cells, Ca2+ flux
Experimental: II) A Ca^2+-Sensitive, Fluorescence-Based Assay α-7 for Nicotinic Acetylcholine Receptor Channel Function in Mammalian Cells (“FLIPR”).
Lead compounds are evaluated for agonist activity at α-7, α3β4, α4αβ2, and α1β1δ1ε sub-types of nicotinic ACh receptor ion channels expressed in mammalian HEK 293 cells. Agonist potency and efficacy values are determined from kinetic fluorescence Ca^2+ influx measurements made using a 384 well FLIPR (Fluorescence Image Plate Reader). […] In this assay, channel expressing HEK cell lines seeded in 384 well assay plates are loaded with a membrane permeant fluorescent Ca^2+ indicator dye, whose 510 nm green emission signal increases in response to elevation of intracellular Ca^2+ concentration. The basal fluorescence from the cells is monitored in real time, followed by the acute addition of test compounds.
Reagents: The acetomethoxy (AM) ester of the Ca^2+ indicator dye Fluo-4 was obtained from InVitrogen, (Carlsbad, Calif.). Acetylcholine and all buffer constituents were purchased from Sigma Chemical Company, St. Louis, Mo. G418 and Minimal Essential Medium were purchased from InVitrogen Life Technologies, Carlsbad, Calif. Fetal bovine serum was purchased from (InVitrogen, Carlsbad, Calif.).
HEK-293 cells were grown in Minimal Essential Medium containing 10% (v/v) fetal bovine serum at 37° C. in a 5% CO2 incubator. HEK-293 cells stably expressing the ion channels were grown in the same medium with the addition of 500 μg/ml G418.
HEK-293 cells expressing the ion channels of interest were plated in 384 well, black-walled, clear-bottomed, poly-D-lysine coated plates at a density of ˜20,000 cells/well in 20 μl of Minimal Essential Medium containing 10% (v/v) fetal bovine serum and incubated for 2 days at 29° C. in a 5% CO2 incubator. Prior to assay, cells were loaded with the Fluo-4 AM ester. […] Dye loading was allowed to proceed for 90 minutes at room temperature at which time the dye loading solution was removed and replaced with 40 μl/well of Hanks buffer. Cells loaded with dye were loaded onto a FLIPR384 (Molecular Devices, Sunnyvale, Calif.). […] Emission was filtered using a 540+/−30 nm bandpass filter. For evaluation of the effects of test compounds using the Ca^2+ flux assay, compounds to be tested were provided in assay ready plates. For nicotinic receptor ion channel expressing cells, the assay was initiated by the addition of 20 μl/well of Hanks buffer containing test compounds. For all assays, data were collected at 1 Hz for 10 seconds (baseline), at which time the compound containing stimulus buffers are added, and further measurements collected at 0.33 Hz for 3 min.
The statistical robustness of the nicotinic receptor Ca^2+ flux assays is determined from blanks and totals wells. […] The raw fluorescence units data files generated on the FLIPR plate reader are automatically exported and processed by in-house data analysis tools. The reduced percent activation data for each concentration of test compound are fit using MathIQ fitting engine (ID Business Solutions Limited, Surrey, UK). Data were analyzed by fitting maximum amplitudes of change in fluorescence, for Ca^2+ flux for a given condition of test compound. […] Test compound efficacy values (Ymax values) are expressed relative to a maximal response to acetylcholine in the total wells.

[1] = FLIPR α7-HI (EC50, nM), Table 1, activity class
[2] = FLIPR α7-HI (EC50, nM), Table 4, activity class
[3] = FLIPR α7-HI (EC50, nM), Table 3, activity class

T1 sequence (Q05941 23-502): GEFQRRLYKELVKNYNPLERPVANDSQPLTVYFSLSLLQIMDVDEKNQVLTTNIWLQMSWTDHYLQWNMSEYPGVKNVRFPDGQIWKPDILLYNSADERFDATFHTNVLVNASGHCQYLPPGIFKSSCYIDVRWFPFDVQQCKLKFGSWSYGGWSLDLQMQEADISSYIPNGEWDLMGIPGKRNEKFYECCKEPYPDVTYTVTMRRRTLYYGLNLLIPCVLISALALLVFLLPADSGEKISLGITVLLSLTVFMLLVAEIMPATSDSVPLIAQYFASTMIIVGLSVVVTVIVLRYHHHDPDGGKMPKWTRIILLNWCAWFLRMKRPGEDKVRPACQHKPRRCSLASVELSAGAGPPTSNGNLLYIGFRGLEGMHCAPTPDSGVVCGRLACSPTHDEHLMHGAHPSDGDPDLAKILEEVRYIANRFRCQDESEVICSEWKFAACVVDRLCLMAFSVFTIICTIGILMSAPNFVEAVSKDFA

SMILES	EC50 [1]	further results
FC(F)(F)c1ccc2c(NC3=NCC4(CN5CCC4CC5)N3)n[nH]c2c1 (stereo not drawn) [Example 51]	> 1e+06 nM	–
Cc1nc(C)nc(NC2=NCC3(CN4CCC3CC4)N2)n1 (stereo not drawn) [Example 43]	1000 to 100000 nM	–
Clc1cnc(NC2=NCC3(CN4CCC3CC4)N2)nc1 (stereo not drawn) [Example 17]	100 to 1000 nM	EC50 (FLIPR α7-HI (EC50, nM)): 286 nM
CN1C(Nc2ncc(-c3ccccc3)s2)=NCC12CN1CCC2CC1 (stereo not drawn) [Example 5]	1000 to 100000 nM	–
Clc1cnc(NC2=NCC3(CN4CCC3CC4)N2)cn1 (stereo not drawn) [Example 7, N-(5-Chloro-2-pyrazinyl)-1′,5′-dihydrospiro[4-azabicyclo[2.2.2]octane-2,4′-imidazol]-2′-amine]	100 to 1000 nM	–
Clc1ccc2nc(NC3=NCC4(CN5CCC4CC5)N3)sc2c1 (stereo not drawn) [Example 52]	100 to 1000 nM	EC50 (FLIPR α7-HI (EC50, nM)): 154 nM
Clc1ccc2nc(NC3=NCC4(CN5CCC4CC5)N3)sc2n1 (single isomer, unassigned) [Example 28a]	< 100 nM	–
CCN1C(Nc2ncc(-c3ccccc3)s2)=NCC12CN1CCC2CC1 (stereo not drawn) [Example 6]	1000 to 100000 nM	–
Clc1ccc(NC2=NCC3(CN4CCC3CC4)N2)nc1 (stereo not drawn) [Example 13]	1000 to 100000 nM	–
CN1C(Nc2nc3ccccn3n2)=NCC12CN1CCC2CC1 (stereo not drawn) [Example 35]	1000 to 100000 nM	–
COc1ncc2nc(NC3=NCC4(CN5CCC4CC5)N3)sc2n1 (stereo not drawn) [Example 19, N-(5-Methoxy[1,3]thiazolo[5,4-d]pyrimidin-2-yl)-1′,5′-dihydrospiro[4-azabicyclo[2.2.2]octane-2,4′-imidazol]-2′-amine]	1000 to 100000 nM	–
CN1C(Nc2nc3ccc(F)nc3s2)=NCC12CN1CCC2CC1 (stereo not drawn) [Example 45]	1000 to 100000 nM	–
COc1cc(NC2=NCC3(CN4CCC3CC4)N2C)ncn1 (stereo not drawn) [Example 21]	100 to 1000 nM	–
COc1ccc2sc(NC3=NCC4(CN5CCC4CC5)N3)nc2c1 (stereo not drawn) [Example 54]	100 to 1000 nM	–
c1cn(-c2cc(NC3=NCC4(CN5CCC4CC5)N3)ncn2)cn1 (stereo not drawn) [Example 61]	100 to 1000 nM	–
Clc1ccc2nc(NC3=NCC4(CN5CCC4CC5)N3)sc2n1 (stereo not drawn) [Example 28]	< 100 nM	–
Cc1cnc2nc(NC3=NCC4(CN5CCC4CC5)N3)sc2n1 (stereo not drawn) [Example 41]	1000 to 100000 nM	–
COc1ccc2nc(/N=C3\OC4(CN5CCC4CC5)CN3C)sc2c1 (stereo not drawn) [Example 89, (Z)-6-Methoxy-N-(3-methyl-1′-azaspiro[oxazolidine-5,3′-bicyclo[2.2.2]octane]-2-ylidene)benzo[d]thiazol-2-amine]	–	EC50 [2]: > 1e+06 nM
c1ccc2nc(NC3=NCC4(CN5CCC4CC5)N3)cnc2c1 (stereo not drawn) [Example 36]	100 to 1000 nM	–
COc1ncc2nc(NC3=NCCC4(CN5CCC4CC5)O3)sc2n1 (stereo not drawn) [Example 79, N-(5-Methoxythiazolo[5,4-d]pyrimidin-2-yl)-4,5-dihydro-1′-azaspiro[[1,3]oxazine-6,3′-bicyclo[2.2.2]octan]-2-amine]	–	EC50 [3]: 1000 to 100000 nM

SMILES	EC50 [1]	further results
c1ccc2c(NC3=NCC4(CN5CCC4CC5)N3)ncnc2c1 (stereo not drawn) [Example 23]	100 to 1000 nM	–
c1ccc2sc(NC3=NCCC4(CN5CCC4CC5)O3)nc2c1 (stereo not drawn) [Example 74]	–	EC50 [3]: 100 to 1000 nM
Clc1ccc2oc(NC3=NCC4(CN5CCC4CC5)N3)nc2c1 (stereo not drawn) [Example 57]	100 to 1000 nM	–
c1ccc2cc(NC3=NCCC4(CN5CCC4CC5)O3)ncc2c1 (single isomer, unassigned) [Example 76b]	–	EC50 [3]: > 1e+06 nM
c1ccc2sc(NC3=NCC4(CN5CCC4CC5)N3)nc2c1 (single isomer, unassigned) [Example 11b]	1000 to 100000 nM	–
Cc1ccc2nc(NC3=NCC4(CN5CCC4CC5)N3)oc2c1 (stereo not drawn) [Example 8, N-(6-Methyl-1,3-benzoxazol-2-yl)-1′,5′-dihydrospiro[4-azabicyclo[2.2.2]octane-2,4′-imidazol]-2′-amine]	< 100 nM	–
c1ccc2[nH]c(NC3=NCCC4(CN5CCC4CC5)O3)nc2c1 (stereo not drawn) [Example 77]	–	EC50 (Table 3, activity class, read-out: FLIPR α7-HI (EC50)): > 1e+06 nM; EC50 (Table 3, read-out: FLIPR α7-HI (EC50)): > 100000 nM
CCN1C(Nc2nc3ccc(OC)cc3s2)=NCC12CN1CCC2CC1 (stereo not drawn) [Example 3]	100 to 1000 nM	–
c1ccc2[nH]c(NC3=NCC4(CN5CCC4CC5)N3)nc2c1 (stereo not drawn) [Example 16]	–	EC50 (read-out: FLIPR α7-HI (EC50)): 1290 nM
c1ccc(-c2cnc(NC3=NC4(CO3)CN3CCC4CC3)s2)cc1 (stereo not drawn) [Example 68, N-(5-Phenylthiazol-2-yl)-5H-1′-azaspiro[oxazole-4,3′-bicyclo[2.2.2]octan]-2-amine]	–	EC50 (FLIPR α7-HI (EC50, nM), Table 2, activity class column): 100 to 1000 nM
CN1CC2(CN3CCC2CC3)O/C1=N\c1cnc(Cl)cn1 (stereo not drawn) [Example 91, (Z)-5-Chloro-N-(3-methyl-1′-azaspiro[oxazolidine-5,3′-bicyclo[2.2.2]octane]-2-ylidene)pyrazin-2-amine]	–	EC50 [2]: 1000 to 100000 nM
COc1ncnc2sc(NC3=NCC4(CN5CCC4CC5)N3)nc12 (stereo not drawn) [Example 38]	1000 to 100000 nM	–
c1ccc2nc(NC3=NCCC4(CN5CCC4CC5)O3)ncc2c1 (stereo not drawn) [Example 84]	–	EC50 [3]: 100 to 1000 nM
Cc1nnc(NC2=NCC3(CN4CCC3CC4)N2C)nc1C (stereo not drawn) [Example 22]	> 1e+06 nM	–
c1ccc2c(NC3=NCCC4(CN5CCC4CC5)O3)ncnc2c1 (stereo not drawn) [Example 82]	–	EC50 [3]: 100 to 1000 nM
c1ccc2sc(NC3=NCC4(CN5CCC4CC5)N3)nc2c1 (stereo not drawn) [Example 11]	< 100 nM	–
CN1C(Nc2cc3ccccc3cn2)=NCC12CN1CCC2CC1 (stereo not drawn) [Example 15]	100 to 1000 nM	EC50 (FLIPR α7-HI (EC50, nM)): 787 nM
Clc1ccc(NC2=NCC3(CN4CCC3CC4)N2)nn1 (stereo not drawn) [Example 25]	1000 to 100000 nM	–
Clc1cnc(NC2=NCCC3(CN4CCC3CC4)O2)nc1 (stereo not drawn) [Example 78]	–	EC50 [3]: 1000 to 100000 nM
CN1C(Nc2ccc3ccccc3n2)=NCC12CN1CCC2CC1 (stereo not drawn) [Example 40]	100 to 1000 nM	EC50 (FLIPR α7-HI (EC50, nM)): 942 nM
